Experimental data published in US20060127967A1, “In vitro test for studying compound predicting pharmacologic and/or harmacokinetic and/or pharmacodynamic parameters of a compound” (priority 2002, published 2006).
Counter-ions that a name gives are not always drawn.

What was measured:
[1] = system: Tetrahymena thermophila; test: Tetrahymena thermophila cell area, computerized morphometric/image analysis bioassay; assay type: cell-based; details: 6 hours exposure, various concentrations, at least 100 cells per sample
Protocol: Tetrahymena thermophila was grown axenically at 34 ?C in proteosepeptone yeast salts (PPYS) complex medium. Test cultures were prepared by inoculating the protozoa from a stock culture into PPYS to produce initial culture of ˜5000 cell/ml. The cell cultures were then grown for 24 hours at 34 ?C. In the beginning of the experiment the culture was transferred into 3 ml test tubes and exposed to the various concentrations of the tested material. Samples were withdrawn 6 hours following the exposure to the tested material. The samples fixed with formaldehyde solution were placed on the hemocytometer, observed under microscope and the area of tetrahymena was evaluated by computerized morphometric system/image analysis program. For each sample at least 100 cells were evaluated.

[2] = Permeation through Integra bi-layer membrane and human skin in Valia-Chien diffusion cells; assay type: in vitro ADME; details: aqueous solution pH 7.2, receiver Tris buffer pH 7.2, 8 hours, permeation area 0.64 cm^2, HCl
Protocol: Permeation studies with aqueous solution of Propranolol HCl (pH 7.2) through Integra and human skin were carried out in Valia-Chien diffusion cells. The effective permeation area was 0.64 cm^2. The receiver compartment contained Tris buffer (pH 7.2) and the experiment lasted for 8 hours. The samples were withdrawn at 0, 1, 2, 4, 6 and 8 hours and the quantity of propranolol HCl permeated through the membrane was analyzed by validated HPLC method.

Row | Structure (SMILES) | change in Tetrahymena thermophila cell area with increasing drug concentration in the medium [1] | permeation constant (Kp) through Integra as compared to human skin [2] | permeation constant (Kp) through Integra as compared to human skin ([2]; listed as propranolol)
1 | O=C([O-])c1ccccc1O.[Na+] [sodium salicylate] | decrease in cell area | – | –
2 | C=CCc1ccccc1OCC(O)CNC(C)C (stereo not shown) [Alprenolol hydrochloride] | decrease in the cell area | – | –
3 | CC(C)NCC(O)COc1cccc2ccccc12 (stereo not shown) [Propranolol HCl] | – | close similarity | similar
